Assay results reported in ChEMBL document CHEMBL4196079, “Molecular interaction of novel benzothiazolyl triazolium analogues with calf thymus DNA and HSA-their biological investigation as potent antimicrobial agents” (Eur J Med Chem, 2018).
≈ marks a conversion by molar mass, not a printed value.

Columns and labels:
Staphylococcus aureus [1] = assay: Antibacterial activity against methicillin-resistant Staphylococcus aureus N315 after 24 hrs by NCCLS micro broth dilution method; format: functional; details: N315, 24 h
Staphylococcus aureus [2] = assay: Antibacterial activity against Staphylococcus aureus ATCC 25923 after 24 hrs by NCCLS micro broth dilution method; format: functional; details: ATCC 25923, 24 h
Bacillus subtilis = assay: Antibacterial activity against Bacillus subtilis ATCC 21216 after 24 hrs by NCCLS micro broth dilution method; format: functional; details: ATCC 21216, 24 h
Micrococcus luteus = assay: Antibacterial activity against Micrococcus luteus ATCC 4698 after 24 hrs by micro broth dilution method; format: functional; details: ATCC 4698, 24 h
Escherichia coli [3] = assay: Antibacterial activity against Escherichia coli DH52 after 24 hrs by NCCLS micro broth dilution method; format: functional; details: DH52, 24 h
Escherichia coli [4] = assay: Antibacterial activity against Escherichia coli JM109 after 24 hrs by NCCLS micro broth dilution method; format: functional; details: JM109, 24 h
Shigella dysenteriae = assay: Antibacterial activity against Shigella dysenteriae after 24 hrs by NCCLS micro broth dilution method; format: functional
Pseudomonas aeruginosa = assay: Antibacterial activity against Pseudomonas aeruginosa ATCC 27853 after 24 hrs by NCCLS micro broth dilution method; format: functional; details: ATCC 27853, 24 h
Salmonella typhi = assay: Antibacterial activity against Salmonella typhi after 24 hrs by NCCLS micro broth dilution method; format: functional, Salmonella enterica subsp. enterica serovar Typhi; details: Salmonella enterica
Bacillus = assay: Antibacterial activity against Bacillus proteus ATCC 13315 after 24 hrs by NCCLS micro broth dilution method; format: functional; details: ATCC 13315, 24 h
Candida albicans = assay: Antifungal activity against Candida albicans ATCC 76615 after 24 hrs by NCCLS micro broth dilution method; format: functional; details: ATCC 76615, 24 h
Pichia norvegensis = assay: Antifungal activity against Candida mycoderma after 24 hrs by NCCLS micro broth dilution method; format: functional
Cyberlindnera jadinii = assay: Antifungal activity against Candida utilis after 24 hrs by NCCLS micro broth dilution method; format: functional; details: Williopsis jadinii
Aspergillus flavus = assay: Antifungal activity against Aspergillus flavus after 24 hrs by NCCLS micro broth dilution method; format: functional
Saccharomyces cerevisiae [5] = assay: Antifungal activity against Saccharomyces cerevisiae after 24 hrs by NCCLS micro broth dilution method; format: functional
Saccharomyces cerevisiae [6] = assay: Potency index, ratio of fluconazole MIC to compound MIC for antifungal activity against Saccharomyces cerevisiae; format: functional

| SMILES | MIC (Staphylococcus aureus [1]) | MIC (Staphylococcus aureus [2]) | MIC (Bacillus subtilis) | MIC (Micrococcus luteus) | MIC (Escherichia coli [3]) | MIC (Escherichia coli [4]) | MIC (Shigella dysenteriae) | MIC (Pseudomonas aeruginosa) | MIC (Salmonella typhi) | MIC (Bacillus) | MIC (Candida albicans) | MIC (Pichia norvegensis) | MIC (Cyberlindnera jadinii) | MIC (Aspergillus flavus) | MIC (Saccharomyces cerevisiae [5]) | Ratio (Saccharomyces cerevisiae [6]) |
| --- | --- | --- | --- | --- | --- | --- | --- | --- | --- | --- | --- | --- | --- | --- | --- | --- |
| CCCCCn1cc(COCc2c(-c3ccccc3)nc3sc4cc(OCC)ccc4n23)nn1 | 32 µg/mL (≈ 67.3 µM) | 128 µg/mL (≈ 269 µM) | 64 µg/mL (≈ 135 µM) | 128 µg/mL (≈ 269 µM) | 128 µg/mL (≈ 269 µM) | 128 µg/mL (≈ 269 µM) | 128 µg/mL (≈ 269 µM) | 128 µg/mL (≈ 269 µM) | 128 µg/mL (≈ 269 µM) | 64 µg/mL (≈ 135 µM) | 8 µg/mL (≈ 16.8 µM) | 4 µg/mL (≈ 8.41 µM) | 1 µg/mL (≈ 2.1 µM) | 32 µg/mL (≈ 67.3 µM) | 8 µg/mL (≈ 16.8 µM) | 2 |
| CCCCCCCn1cc(COCc2c(-c3ccccc3)nc3sc4ccccc4n23)nn1 | 128 µg/mL (≈ 278 µM) | 128 µg/mL (≈ 278 µM) | 128 µg/mL (≈ 278 µM) | 128 µg/mL (≈ 278 µM) | 64 µg/mL (≈ 139 µM) | 128 µg/mL (≈ 278 µM) | 128 µg/mL (≈ 278 µM) | 64 µg/mL (≈ 139 µM) | 64 µg/mL (≈ 139 µM) | 64 µg/mL (≈ 139 µM) | 32 µg/mL (≈ 69.6 µM) | 32 µg/mL (≈ 69.6 µM) | 16 µg/mL (≈ 34.8 µM) | 256 µg/mL (≈ 557 µM) | 32 µg/mL (≈ 69.6 µM) |  |
| CCOc1ccc2c(c1)sc1nc(-c3ccccc3)c(COCc3cn(Cc4ccc([N+](=O)[O-])cc4)nn3)n12 | 128 µg/mL (≈ 237 µM) | 128 µg/mL (≈ 237 µM) | 256 µg/mL (≈ 474 µM) | 512 µg/mL (≈ 947 µM) | 128 µg/mL (≈ 237 µM) | 2 µg/mL (≈ 3.7 µM) | 128 µg/mL (≈ 237 µM) | 128 µg/mL (≈ 237 µM) | 4 µg/mL (≈ 7.4 µM) | 32 µg/mL (≈ 59.2 µM) | 32 µg/mL (≈ 59.2 µM) | 8 µg/mL (≈ 14.8 µM) | 4 µg/mL (≈ 7.4 µM) | 128 µg/mL (≈ 237 µM) | 16 µg/mL (≈ 29.6 µM) |  |
| Fc1cccc(Cn2cc(COCc3c(-c4ccccc4)nc4sc5ccccc5n34)nn2)c1 | 16 µg/mL (≈ 34.1 µM) | 128 µg/mL (≈ 273 µM) | 64 µg/mL (≈ 136 µM) | 128 µg/mL (≈ 273 µM) | 32 µg/mL (≈ 68.2 µM) | 16 µg/mL (≈ 34.1 µM) | 128 µg/mL (≈ 273 µM) | 128 µg/mL (≈ 273 µM) | 128 µg/mL (≈ 273 µM) | 64 µg/mL (≈ 136 µM) | 16 µg/mL (≈ 34.1 µM) | 8 µg/mL (≈ 17 µM) | 8 µg/mL (≈ 17 µM) | 128 µg/mL (≈ 273 µM) | 32 µg/mL (≈ 68.2 µM) |  |
| Clc1ccc(Cn2cc(COCc3c(-c4ccccc4)nc4sc5ccccc5n34)nn2)cc1Cl | 16 µg/mL (≈ 30.7 µM) | 64 µg/mL (≈ 123 µM) | 16 µg/mL (≈ 30.7 µM) | 32 µg/mL (≈ 61.5 µM) | 64 µg/mL (≈ 123 µM) | 64 µg/mL (≈ 123 µM) | 32 µg/mL (≈ 61.5 µM) | 16 µg/mL (≈ 30.7 µM) | 64 µg/mL (≈ 123 µM) | 8 µg/mL (≈ 15.4 µM) | 32 µg/mL (≈ 61.5 µM) | 32 µg/mL (≈ 61.5 µM) | 64 µg/mL (≈ 123 µM) | 256 µg/mL (≈ 492 µM) | 64 µg/mL (≈ 123 µM) |  |
| Fc1ccccc1Cn1cc(COCc2c(-c3ccccc3)nc3sc4ccccc4n23)nn1 | 32 µg/mL (≈ 68.2 µM) | 64 µg/mL (≈ 136 µM) | 128 µg/mL (≈ 273 µM) | 64 µg/mL (≈ 136 µM) | 128 µg/mL (≈ 273 µM) | 128 µg/mL (≈ 273 µM) | 128 µg/mL (≈ 273 µM) | 128 µg/mL (≈ 273 µM) | 64 µg/mL (≈ 136 µM) | 128 µg/mL (≈ 273 µM) | 32 µg/mL (≈ 68.2 µM) | 16 µg/mL (≈ 34.1 µM) | 16 µg/mL (≈ 34.1 µM) | 128 µg/mL (≈ 273 µM) | 64 µg/mL (≈ 136 µM) |  |
| Clc1ccc(Cn2cc(COCc3c(-c4ccccc4)nc4sc5ccccc5n34)nn2)c(Cl)c1 | 32 µg/mL (≈ 61.5 µM) | 64 µg/mL (≈ 123 µM) | 64 µg/mL (≈ 123 µM) | 32 µg/mL (≈ 61.5 µM) | 16 µg/mL (≈ 30.7 µM) | 64 µg/mL (≈ 123 µM) | 64 µg/mL (≈ 123 µM) | 8 µg/mL (≈ 15.4 µM) | 64 µg/mL (≈ 123 µM) | 32 µg/mL (≈ 61.5 µM) | 32 µg/mL (≈ 61.5 µM) | 32 µg/mL (≈ 61.5 µM) | 32 µg/mL (≈ 61.5 µM) | 256 µg/mL (≈ 492 µM) | 64 µg/mL (≈ 123 µM) |  |
| Clc1ccccc1Cn1cc(COCc2c(-c3ccccc3)nc3sc4ccccc4n23)nn1 | 64 µg/mL (≈ 132 µM) | 64 µg/mL (≈ 132 µM) | 128 µg/mL (≈ 263 µM) | 128 µg/mL (≈ 263 µM) | 128 µg/mL (≈ 263 µM) | 8 µg/mL (≈ 16.5 µM) | 64 µg/mL (≈ 132 µM) | 128 µg/mL (≈ 263 µM) | 64 µg/mL (≈ 132 µM) | 64 µg/mL (≈ 132 µM) | 16 µg/mL (≈ 32.9 µM) | 8 µg/mL (≈ 16.5 µM) | 64 µg/mL (≈ 132 µM) | 128 µg/mL (≈ 263 µM) | 64 µg/mL (≈ 132 µM) |  |
| CCOc1ccc2c(c1)sc1nc(-c3ccccc3)c(COCc3cn(Cc4ccc(Cl)cc4)nn3)n12 | 64 µg/mL (≈ 121 µM) | 64 µg/mL (≈ 121 µM) | 64 µg/mL (≈ 121 µM) | 32 µg/mL (≈ 60.4 µM) | 64 µg/mL (≈ 121 µM) | 64 µg/mL (≈ 121 µM) | 64 µg/mL (≈ 121 µM) | 32 µg/mL (≈ 60.4 µM) | 64 µg/mL (≈ 121 µM) | 64 µg/mL (≈ 121 µM) | 32 µg/mL (≈ 60.4 µM) | 16 µg/mL (≈ 30.2 µM) | 64 µg/mL (≈ 121 µM) | 128 µg/mL (≈ 241 µM) | 64 µg/mL (≈ 121 µM) |  |
| CCCCCCn1cc(COCc2c(-c3ccccc3)nc3sc4cc(OCC)ccc4n23)nn1 | 64 µg/mL (≈ 131 µM) | 128 µg/mL (≈ 261 µM) | 128 µg/mL (≈ 261 µM) | 128 µg/mL (≈ 261 µM) | 128 µg/mL (≈ 261 µM) | 64 µg/mL (≈ 131 µM) | 128 µg/mL (≈ 261 µM) | 128 µg/mL (≈ 261 µM) | 128 µg/mL (≈ 261 µM) | 128 µg/mL (≈ 261 µM) | 64 µg/mL (≈ 131 µM) | 16 µg/mL (≈ 32.7 µM) | 16 µg/mL (≈ 32.7 µM) | 128 µg/mL (≈ 261 µM) | 32 µg/mL (≈ 65.4 µM) |  |
| CCOc1ccc2c(c1)sc1nc(-c3ccccc3)c(COCc3cn(Cc4ccc(F)cc4)nn3)n12 | 128 µg/mL (≈ 249 µM) | 128 µg/mL (≈ 249 µM) | 64 µg/mL (≈ 125 µM) | 128 µg/mL (≈ 249 µM) | 32 µg/mL (≈ 62.3 µM) | 64 µg/mL (≈ 125 µM) | 16 µg/mL (≈ 31.2 µM) | 64 µg/mL (≈ 125 µM) | 32 µg/mL (≈ 62.3 µM) | 64 µg/mL (≈ 125 µM) | 8 µg/mL (≈ 15.6 µM) | 8 µg/mL (≈ 15.6 µM) | 16 µg/mL (≈ 31.2 µM) | 64 µg/mL (≈ 125 µM) | 32 µg/mL (≈ 62.3 µM) |  |
